# BindingDB's records for doi:10.7270/Q2PR7TCX (The Scripps Research Institute Molecular Screening Center, 2007)
# Counter-ions that a name gives are not always drawn.
# Target: Steroidogenic factor 1 (Homo sapiens, UniProt Q13285)
# Assay: inhibition of SF-1 LBD-driven luciferase – cell-based, CHO-K1, Gal4-SF-1 LBD, luciferase luminescence, counter-screen for RORA inhibitor project, dose response (AID 611)
# Details: not given
# Chain of Steroidogenic factor 1 (Q13285 whole entry, the tested form may be a part): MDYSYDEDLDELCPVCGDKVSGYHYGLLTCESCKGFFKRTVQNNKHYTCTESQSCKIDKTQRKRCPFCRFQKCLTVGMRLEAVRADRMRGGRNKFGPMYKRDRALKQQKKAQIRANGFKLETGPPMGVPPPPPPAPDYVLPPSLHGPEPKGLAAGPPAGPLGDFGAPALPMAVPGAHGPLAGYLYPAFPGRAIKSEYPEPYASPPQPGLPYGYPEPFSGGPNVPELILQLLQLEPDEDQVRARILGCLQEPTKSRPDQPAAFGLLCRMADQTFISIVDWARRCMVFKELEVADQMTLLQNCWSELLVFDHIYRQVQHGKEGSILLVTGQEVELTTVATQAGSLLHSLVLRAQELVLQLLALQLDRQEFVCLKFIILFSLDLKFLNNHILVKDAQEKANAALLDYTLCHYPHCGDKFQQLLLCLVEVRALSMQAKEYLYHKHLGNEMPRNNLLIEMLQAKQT
row,Compound,IC50
1,"O=C1C(=CNc2ccc3c(c2)OCO3)CCc2ccccc21 [(2E)-2-[(1,3-benzodioxol-5-ylamino)methylene]tetralin-1-one]",3.32 µM
2,"Cc1cc(C)cc(Nc2ccc(C(=O)O)cc2N)c1 [3-amino-4-(3,5-dimethylanilino)benzoic acid]",> 99 µM
3,"Cc1ccc(-c2nc(-c3ccccc3)no2)c(Cl)c1 [5-(2-chloranyl-4-methyl-phenyl)-3-phenyl-1,2,4-oxadiazole]",3.34 µM
4,"COc1cccc(N2CCN(c3ncnc4c3[nH]c3ccc(F)cc34)CC2C)c1 (stereo not given) [8-fluoranyl-4-[4-(3-methoxyphenyl)-3-methyl-piperazin-1-yl]-5H-pyrimido[5,4-b]indole]",1.44 µM
5,Cc1ccc(Nc2cc(C)nn2-c2nc(C)cc(O)n2)cc1 [6-methyl-2-[3-methyl-5-(4-methylanilino)pyrazol-1-yl]-1H-pyrimidin-4-one],4.15 µM
6,Cc1ccc(-c2cnc(NC(=O)CCC(=O)N3CCCCC3)n2C)cc1 [4-keto-N-[1-methyl-5-(p-tolyl)imidazol-2-yl]-4-piperidino-butyramide],> 99.1 µM
7,"O=S1(=O)C=C(Sc2nc3ccccc3s2)c2ccccc21 [2-[(1,1-dioxido-1-benzothien-3-yl)thio]-1,3-benzothiazole]",2.67 µM
8,C[S+]([O-])c1nc(-c2ccc(Br)cc2)cc(-c2ccccc2)c1C#N (stereo not given) [6-(4-bromophenyl)-2-(methylsulfinyl)-4-phenylnicotinonitrile],8.07 µM
9,"CN(C)C(=O)CCc1nc(-c2ccc(C(C)(C)C)cc2)no1 [3-[3-(4-tert-butylphenyl)-1,2,4-oxadiazol-5-yl]-N,N-dimethyl-propanamide]",1.1 µM
10,"CCN1C=CC(=C2C(=O)c3ccccc3C2=O)C=C1 [2-(1-ethyl-4-pyridinylidene)indene-1,3-dione]",1.34 µM
11,"O=C(CSC1=NCCS1)Nc1ccnc2ccccc12 [2-(4,5-dihydro-1,3-thiazol-2-ylsulfanyl)-N-quinolin-4-yl-ethanamide]",5.95 µM
12,c1ccc(-c2nc(N3CCCCCC3)c3ccccc3n2)nc1 [SMR000046752],4.13 µM
13,O=C(CC=Nc1ccccn1)c1ccc(Cl)cc1 [(Z)-1-(4-chlorophenyl)-3-(2-pyridinylamino)-2-propen-1-one],4.88 µM
14,"N#Cc1c(NC(=O)CSc2nc[nH]n2)sc2c1CCCCC2 [N-(3-cyano-5,6,7,8-tetrahydro-4H-cyclohepta[b]thien-2-yl)-2-(1H-1,2,4-triazol-3-ylthio)acetamide]",0.237 µM
15,"O=NC1c2cc(S(=O)(=O)N3CCCCC3)ccc2-c2ccc(S(=O)(=O)N3CCCCC3)cc21 [2,7-Bis-(piperidine-1-sulfonyl)-fluoren-9-one oxime]",2.14 µM
16,O=S1(=O)C=C(Sc2nc3cc(Cl)ccc3o2)c2ccccc21 [SMR000019512],5.99 µM
17,O=C(O)CCCCCn1c(O)csc1=S [6-(4-keto-2-thioxo-thiazolidin-3-yl)hexanoic acid],> 99 µM
18,"CCOc1ccc(C2=Nn3c(nnc3-c3ccccc3OC)SC2)cc1 [6-(4-ethoxyphenyl)-3-(2-methoxyphenyl)-7H-[1,2,4]triazolo[3,4-b][1,3,4]thiadiazine]",0.39 µM
19,"CCOC(=O)C1CCN(c2ncnc3c2cnn3-c2ccc(Cl)cc2)CC1 [1-[1-(4-chlorophenyl)-4-pyrazolo[3,4-d]pyrimidinyl]-4-piperidinecarboxylic acid ethyl ester]",5.75 µM
20,COc1ccc(C=Nn2nnc3ccccc32)cc1 [MLS000043825],4 µM
21,Nc1ccc(-c2nc3c(Cl)cc(N)cc3[nH]2)cc1 [MLS000034140],5.43 µM
22,"Cn1c(-c2ccccc2)cc2c3no[n+]([O-])c3ccc21 [6-methyl-3-oxidanidyl-7-phenyl-pyrrolo[2,3-g][2,1,3]benzoxadiazol-3-ium]",6.06 µM
23,"COc1ccc(-c2cc3nc4n(c(=O)c3s2)CCC4)cc1 [2-(4-methoxyphenyl)-6,7-dihydropyrrolo[1,2-a]thieno[3,2-d]pyrimidin-9(5H)-one]",> 3.67 µM
24,CCN(CC)c1ccc2cc(NC(=O)CCC(=O)O)c(=O)oc2c1 [4-[[7-(diethylamino)-2-keto-chromen-3-yl]amino]-4-keto-butyric acid],6.07 µM
25,COCCn1c(C)cc(C(=O)COC(=O)c2[nH]nc3ccccc23)c1C [SMR000068187],8.16 µM
26,CS(=O)(=O)c1nc(-c2cccs2)cc(C(F)(F)F)n1 [MLS000044645],6.41 µM

row,Compound,IC50
1,"CN(C)c1nc(N)nc(CSc2nnnn2-c2cccc3ccccc23)n1 [2-N,2-N-dimethyl-6-[(1-naphthalen-1-yltetrazol-5-yl)sulfanylmethyl]-1,3,5-triazine-2,4-diamine]",> 99 µM
2,Nc1cccc(-c2nc3ccc(N)cc3s2)c1 [2-(3-Amino-phenyl)-benzothiazol-6-ylamine],> 3.67 µM
3,"Cc1ccc2nc(-c3ccccc3)cn2c1 [6-methyl-2-phenyl-imidazo[1,2-a]pyridine;hydrobromide]",1.93 µM
4,Cc1cc(C=Nn2cnnc2)c(C)n1-c1ccc(OCc2ccccc2F)cc1 [MLS000112180],7.58 µM
5,"COc1ccc(O)c(C(=O)CC(=O)c2ccc(F)cc2)c1 [1-(4-fluorophenyl)-3-(2-hydroxy-5-methoxy-phenyl)propane-1,3-dione]",> 11 µM
6,Cc1cccc(NC(=O)CSc2nnc(-c3cc(C)n(-c4ccccc4)c3C)o2)c1C [MLS000036049],3.29 µM
7,CC1CCc2nc(NC(=O)c3ccco3)sc2C1 (stereo not given) [MLS000063711],3.29 µM
8,"Cc1nnc(SC(=O)N2c3ccccc3Sc3ccccc32)s1 [10-phenothiazinecarbothioic acid S-(5-methyl-1,3,4-thiadiazol-2-yl) ester]",6.07 µM
9,COc1cccc(C(=O)c2sc(NC(C)C)nc2N)c1 [MLS000036929],5.26 µM
10,"c1ccc(-c2cn3c4c(sc3n2)CCCC4)cc1 [2-phenyl-5,6,7,8-tetrahydroimidazo[2,1-b][1,3]benzothiazole]",4.27 µM
11,"O=C(NC1CC1)c1ccc(-c2nc3ccccc3s2)s1 [5-(1,3-benzothiazol-2-yl)-N-cyclopropyl-2-thiophenecarboxamide]",9.53 µM
12,O=S1(=O)C=C(Sc2nnc(-c3ccccc3)o2)c2ccccc21,6.04 µM
13,"CNC(=O)CCc1nc(-c2ccc(C(C)(C)C)cc2)no1 [3-[3-(4-tert-butylphenyl)-1,2,4-oxadiazol-5-yl]-N-methyl-propanamide]",0.075 µM
14,"C[C@H]1CCCC=CC2C[C@H](O)CC2[C@H](O)C=CC(=O)O1 (stereo partly drawn) [(7S,12R,15S)-12,15-dihydroxy-7-methyl-8-oxabicyclo[11.3.0]hexadeca-2,10-dien-9-one]",8.95 µM
15,"COc1cccc(N2CCN(c3ncnc4c3[nH]c3ccccc34)CC2C)c1 (stereo not given) [4-[4-(3-methoxyphenyl)-3-methyl-1-piperazinyl]-5H-pyrimido[5,4-b]indole]",4.85 µM
16,"COc1cc(OC)cc(-c2cc3nc(C)c(CCC(=O)O)c(C)n3n2)c1 [3-[2-(3,5-dimethoxyphenyl)-5,7-dimethyl-6-pyrazolo[1,5-a]pyrimidinyl]propanoic acid]",0.74 µM
17,"COC(=O)c1ccc(-c2nc(-c3cccs3)no2)cc1 [4-(3-thiophen-2-yl-1,2,4-oxadiazol-5-yl)benzoic acid methyl ester]",> 3.67 µM
18,"COc1ccc(CCNc2c(C)c(C)nc3ncnn23)cc1 [(5,6-Dimethyl-[1,2,4]triazolo[1,5-a]pyrimidin-7-yl)-[2-(4-methoxy-phenyl)-ethyl]-amine]",6.45 µM
19,COc1cc2nc(CN3CC=C(c4ccccc4)CC3)nc(O)c2cc1OC [MLS000053305],2.36 µM
20,CCOC(=O)CS(=O)(=O)c1nc(-c2ccc(F)cc2)cc(C(F)(F)F)n1 [2-[4-(4-fluorophenyl)-6-(trifluoromethyl)pyrimidin-2-yl]sulfonylacetic acid ethyl ester],8.95 µM
21,"CCOc1ccc(S(=O)(=O)n2cnc3cc(C)c(C)cc32)cc1 [1-(4-Ethoxy-benzenesulfonyl)-5,6-dimethyl-1H-benzoimidazole]",> 11 µM
22,COc1cc(CN=O)ccc1OCc1ccc(C(=O)O)cc1 [4-[[4-(hydroximinomethyl)-2-methoxy-phenoxy]methyl]benzoic acid],0.675 µM
23,"CC(=O)c1c(C)[nH]c(C(=O)OCCCCN2C(=O)c3ccccc3C2=O)c1C [4-acetyl-3,5-dimethyl-1H-pyrrole-2-carboxylic acid 4-(1,3-dioxo-2-isoindolyl)butyl ester]",5.04 µM
24,"CCn1nc(-c2ccccc2)nc2c(=O)n(C)c(=O)nc1-2 [1-Ethyl-6-methyl-3-phenyl-1H-pyrimido[5,4-e][1,2,4]triazine-5,7-dione]",3.72 µM
25,Cc1cc(C=Nn2cnnc2)c(C)n1-c1ccc(OCc2ccc(F)cc2)cc1 [MLS000112167],3.4 µM
26,"CCOc1ccc(-c2cc(CCCC(=O)NCc3ccco3)no2)cc1 [4-[5-(4-ethoxyphenyl)-1,2-oxazol-3-yl]-N-(furan-2-ylmethyl)butanamide]",> 11 µM

# Same assay, conditions: inactive by the depositor's call
row,Compound,IC50
1,"Cc1nc2sccn2c1-c1csc(NCc2ccccc2)n1 [4-(6-methyl-5-imidazo[2,1-b]thiazolyl)-N-(phenylmethyl)-2-thiazolamine]",11.1 µM
2,CC(=O)N1CCc2cc(S(=O)(=O)NCCC3=CCCCC3)ccc21 [1-acetyl-N-(2-cyclohex-1-en-1-ylethyl)indoline-5-sulfonamide],17.6 µM
3,"COc1cccc(Cn2c(NCc3ccco3)nc3c2c(=O)n(C)c(=O)n3C)c1 [8-(2-furanylmethylamino)-7-[(3-methoxyphenyl)methyl]-1,3-dimethylpurine-2,6-dione]",10.7 µM
4,Cc1ccc(S(=O)(=O)Nc2ccc3ncccc3c2)cc1 [4-methyl-N-(6-quinolinyl)benzenesulfonamide],12.4 µM
5,O=C(O)CCSc1nc2ccccc2s1 [3-(Benzothiazol-2-ylsulfanyl)-propionic acid],19.1 µM
6,"Cc1ccc2c(c1)nnn2C1CCN(S(=O)(=O)c2ccc(C(=O)N3C(C)CCCC3C)cc2)CC1 (stereo not given) [(2,6-Dimethyl-piperidin-1-yl)-{4-[4-(5-methyl-benzotriazol-1-yl)-piperidine-1-sulfonyl]-phenyl}-methanone]",10.6 µM
7,"Cc1ccccc1NC(=O)N1CCCC(c2nc(-c3ccc(C(C)C)cc3)no2)C1 (stereo not given) [3-[3-(4-Isopropyl-phenyl)-[1,2,4]oxadiazol-5-yl]-piperidine-1-carboxylic acid o-tolylamide]",12.4 µM
8,"Nc1ccc2oc(-c3cc(Br)ccc3Cl)nc2c1 [2-(5-bromanyl-2-chloranyl-phenyl)-1,3-benzoxazol-5-amine]",66.2 µM
